We go through 36 molecules from patent publication US20120171126A1, “NOVEL [3,2-c] HETEROARYL STEROIDS AS GLUCOCORTICOID RECEPTOR AGONISTS COMPOSITIONS AND USES THEREOF” (priority 2009, published 2012).

This experiment deals with IL-8. Kind of experiment: Glucocorticoid transrepression assay, IL-8 inhibition (TR). It counts as cell-based. To be noted: Homo sapiens, NCl-H292 cells, TNFα 10 ng/ml; for Emax: read-out: IL-8 inhibition (TR) Emax % inhibition. The procedure:
Human Lung epithelial cell line NCl-H292 cells were dissociated from stock flask using 0.05% trypsin/0.53 mM EDTA. Cells were suspended in complete medium and counted. Cells were plated in 96-well flat-bottom plates at 20K cells /well in 0.2 ml/well. Plates were incubated for 24-48 hours until cells were between 75-90% confluent. Medium was aspirated and replaced with medium containing various concentrations of steroids or antagonists. After 1 hour incubation at 37°, TNFα (10 ng/ml final concentration in 0.2 ml) was added and the cells incubated overnight. Control wells with and without TNF were included on each plate, as well as wells with TNF in addition to a maximum (10 μM) concentration of dexamethasone. The cell culture medium was sampled and IL-6 and IL-8 cytokine production was measured using the MSD Multi-Spot immunoassay.

Like-named read-outs stand apart in the source and are kept apart here.

For `CC(C)(C)c1ccc(-n2ncc3c2C=C2CCC4C([C@@H](O)CC5(C)C4CC[C@]5(O)C(=O)CSc4nc5ccccc5s4)C2(C)C3)cc1` (stereo partly shown) [Compound 90], the maximal effect (Emax) (Table 1) was less than 60%. The same measure, in the same setting: for `Cn1c(SCC(=O)[C@@]2(O)CCC3C4CCC5=Cc6c(cnn6C(C)(C)C)CC5(C)C4[C@@H](O)CC32C)nc2ccccc21` (stereo partly shown) [Compound 63] the value was less than 60%. Consider `CC12Cc3cnn(-c4ccc(F)cc4)c3C=C1CCC1C2[C@@H](O)CC2(C)C1CC[C@]2(O)C(=O)CSc1ccccn1` (stereo partly shown) [Compound 5], for which, where the note is “Table 1”, the IC50 fell in the range of 0.06 to 20 nM and the Emax is more than 80%. As to `Cn1c(SCC(=O)[C@@]2(O)CCC3C4CCC5=Cc6c(cnn6-c6nc7ccccc7[nH]6)CC5(C)C4[C@@H](O)CC32C)nc2ccccc21` (stereo partly shown) [Compound 84], the Emax (Table 1) is less than 60%. On the same count and under the same terms, for `CC12Cc3cnn(C(C)(C)C)c3C=C1CCC1C2[C@@H](O)CC2(C)C1CC[C@]2(O)C(=O)CSc1nc2cccnc2s1` (stereo partly shown) [Compound 64] the value was less than 60%.

For `C[C@]12Cc3cnoc3C=C1CCC1C2[C@@H](O)C[C@@]2(C)C1CC[C@]2(O)C(=O)CSc1nc2ccccc2s1` (stereo partly shown) [Compound 6], the Emax (Table 3) was less than 60%. In the case of `Cn1c(SCC(=O)[C@@]2(O)CCC3C4CCC5=Cc6c(cnn6CCC#N)CC5(C)C4[C@@H](O)CC32C)nc2ccccc21` (stereo partly shown) [Compound 48], under “Table 1”, the IC50 lay in the range of 66 to 400 nM and the maximum response (Emax) is less than 60%. For `Cc1ccccc1-n1ncc2c1C=C1CCC3C([C@@H](O)CC4(C)C3CC[C@]4(O)C(=O)CSc3nc4ncccc4o3)C1(C)C2` (stereo partly shown) [Compound 79], for the setting “Table 1”, the maximum response (Emax) was less than 60%. Still for that read-out and setting: for `CC(C)(C)c1ccc(-n2ncc3c2C=C2CCC4C([C@@H](O)CC5(C)C4CC[C@]5(O)C(=O)CSc4nc5cccnc5s4)C2(C)C3)cc1` (stereo partly shown) [Compound 92] the value was less than 60%; for `Cn1cnnc1SCC(=O)[C@@]1(O)CCC2C3CCC4=Cc5c(cnn5CCC#N)CC4(C)C3[C@@H](O)CC21C` (stereo partly shown) [Compound 55], less than 60%. With `C[C@]12Cc3cnn(-c4ccc(F)cc4)c3C=C1CCC1C2[C@@H](O)C[C@@]2(C)C1CC[C@]2(O)C(=O)NCCc1cnccn1` (stereo partly shown) [Compound 11], under “Table 2”, the IC50 is 0.06 to 20 nM and the Emax was more than 80%. With `C[C@]12Cc3cnoc3C=C1CCC1C2[C@@H](O)C[C@@]2(C)C1CC[C@]2(O)C(=O)CSc1nc2ccccc2o1` (stereo partly shown) [Compound 1], the Emax (Table 3) is less than 60%. With `COc1ccc(-n2ncc3c2C=C2CCC4C([C@@H](O)CC5(C)C4CC[C@]5(O)C(=O)CSc4ccc5ccccc5n4)C2(C)C3)cc1` (stereo partly shown) [Compound 89], the maximal effect (Emax) (Table 1) was less than 60%.

Turning to `Cn1ncc2c1C=C1CCC3C([C@@H](O)CC4(C)C3CC[C@]4(O)C(=O)CSc3nc4ccccc4[nH]3)C1(C)C2` (stereo partly shown) [Compound 24], under “Table 1”, the IC50 is 66 to 400 nM and the maximum response (Emax) lay within 70 to 80%. For `Cn1ncc2c1C=C1CCC3C([C@@H](O)CC4(C)C3CC[C@]4(O)C(=O)CSc3nc4ccccc4n3C)C1(C)C2` (stereo partly shown) [Compound 20] the same measures were 66 to 400 nM and 60 to 70%. For `CC12Cc3cnn(-c4ccccn4)c3C=C1CCC1C2[C@@H](O)CC2(C)C1CC[C@]2(O)C(=O)CSc1cnc2ccccc2n1` (stereo partly shown) [Compound 44] the same measures were 401 to 1000 nM and less than 60%. For the molecule `Cc1ccccc1-n1ncc2c1C=C1CCC3C([C@@H](O)CC4(C)C3CC[C@]4(O)C(=O)CSc3nc4ccccc4s3)C1(C)C2` (stereo partly shown) [Compound 76], where the note is “Table 1”, the maximal effect (Emax) is less than 60%. On the same count and under the same terms, in the case of `Cc1ccccc1-n1ncc2c1C=C1CCC3C([C@@H](O)CC4(C)C3CC[C@]4(O)C(=O)CSc3nc4ccccc4[nH]3)C1(C)C2` (stereo partly shown) [Compound 82] it was less than 60%.

As to `Cn1c(OCC(=O)[C@@]2(O)CCC3C4CCC5=Cc6c(cnn6-c6ccc(F)cc6)CC5(C)C4[C@@H](O)CC32C)nc2ccccc21` (stereo partly shown) [Compound 112], for the setting “Table 1”, the half-maximal inhibitory concentration (IC50) lay in the range of 0.06 to 20 nM and the maximal effect (Emax) was more than 80%. For `Cn1ncc2c1C=C1CCC3C([C@@H](O)CC4(C)C3CC[C@]4(O)C(=O)CSc3ccc4ccccc4n3)C1(C)C2` (stereo partly shown) [Compound 23] the same measures were 66 to 400 nM and 60 to 70%. For `CC12Cc3cnn(-c4ccc(F)cc4)c3C=C1CCC1C2[C@@H](O)CC2(C)C1CC[C@]2(O)C(=O)COc1nc2ccccc2[nH]1` (stereo partly shown) [Compound 111] the same measures were 0.06 to 20 nM and more than 80%. On to `Cc1ccccc1-n1ncc2c1C=C1CCC3C([C@@H](O)CC4(C)C3CC[C@]4(O)C(=O)CSc3ccc4ccccc4n3)C1(C)C2` (stereo partly shown) [Compound 81], for which, under “Table 1”, the maximum response (Emax) was less than 60%. With `CC12Cc3cnn(-c4ccccc4)c3C=C1CCC1C2[C@@H](O)CC2(C)C1CC[C@]2(O)C(=O)CSc1ccccn1` (stereo partly shown) [Compound 16], under “Table 1”, the IC50 is 0.06 to 20 nM and the maximum response (Emax) is more than 80%. Turning to `Cn1c(SCC(=O)[C@@]2(O)CCC3C4CCC5=Cc6c(cnn6-c6ccc(C(C)(C)C)cc6)CC5(C)C4[C@@H](O)CC32C)nc2ccccc21` (stereo partly shown) [Compound 91], the Emax (Table 1) was less than 60%. Consider `Cn1ncc2c1C=C1CCC3C([C@@H](O)CC4(C)C3CC[C@]4(O)C(=O)CSc3nc4ncccc4o3)C1(C)C2` (stereo partly shown) [Compound 29], for which, for the setting “Table 1”, the IC50 lay within 401 to 1000 nM and the maximum response (Emax) was less than 60%. As for `Cc1cccc(SCC(=O)[C@@]2(O)CCC3C4CCC5=Cc6c(cnn6C)CC5(C)C4[C@@H](O)CC32C)n1` (stereo partly shown) [Compound 33], for the setting “Table 1”, the half-maximal inhibitory concentration (IC50) is 66 to 400 nM and the maximal response (Emax) was less than 60%. For `CC12Cc3cnn(-c4ccc(F)cc4)c3C=C1CCC1C2[C@@H](O)CC2(C)C1CC[C@]2(O)C(=O)Nc1nc2ccccc2s1` (stereo partly shown) [Compound 2], for the setting “Table 2”, the IC50 lay in the range of 0.06 to 20 nM and the maximal effect (Emax) was more than 80%.

In the case of `CC12Cc3cnn(-c4ccccc4)c3C=C1CCC1C2[C@@H](O)CC2(C)C1CC[C@]2(O)C(=O)CSc1nc2ccccc2o1` (stereo partly shown) [Compound 19], for the setting “Table 1”, the IC50 was 401 to 1000 nM and the maximum response (Emax) was less than 60%. Take `CC12Cc3cnn(CCC#N)c3C=C1CCC1C2[C@@H](O)CC2(C)C1CC[C@]2(O)C(=O)CSc1ccc2ccccc2n1` (stereo partly shown) [Compound 51]: under “Table 1”, the maximal response (Emax) is less than 60%. Take `CC12Cc3cnn(-c4ccc(F)cc4)c3C=C1CCC1C2[C@@H](O)CC2(C)C1CC[C@]2(O)C(=O)CC#N` (stereo partly shown) [Compound 9]: for the setting “Table 1”, the IC50 lay within 0.06 to 20 nM and the maximal response (Emax) is more than 80%.

Regarding `CC12Cc3cnn(C(C)(C)C)c3C=C1CCC1C2[C@@H](O)CC2(C)C1CC[C@]2(O)C(=O)CSc1nc2ncccc2o1` (stereo partly shown) [Compound 65], the Emax (Table 1) is less than 60%.

With `CC12Cc3cnn(C(C)(C)C)c3C=C1CCC1C2[C@@H](O)CC2(C)C1CC[C@]2(O)C(=O)CSc1ccc2ccccc2n1` (stereo partly shown) [Compound 67], the Emax (Table 1) was less than 60%. As for `Cc1ccnc(SCC(=O)[C@@]2(O)CCC3C4CCC5=Cc6c(cnn6-c6ccc(F)cc6)CC5(C)C4[C@@H](O)CC32C)n1` (stereo partly shown) [Compound 97], where the note is “Table 1”, the 50% inhibitory concentration (IC50) is 0.06 to 20 nM and the Emax was more than 80%. For `Cn1ncc2c1C=C1CCC3C([C@@H](O)CC4(C)C3CC[C@]4(O)C(=O)CSc3nc4ccccc4o3)C1(C)C2` (stereo partly shown) [Compound 22] the same measures were 66 to 400 nM and less than 60%.

With `CC12Cc3cnn(CCC#N)c3C=C1CCC1C2[C@@H](O)CC2(C)C1CC[C@]2(O)C(=O)CSc1ncccn1` (stereo partly shown) [Compound 54], where the note is “Table 1”, the IC50 was in the range of 401 to 1000 nM and the Emax is less than 60%. `CC12Cc3cnn(-c4ccc(F)cc4)c3C=C1CCC1C2[C@@H](O)CC2(C)C1CC[C@]2(O)C(=O)N[C@H](CO)CCc1ccccc1` (stereo partly shown) [Compound 19]: for the setting “Table 2”, the IC50 is 0.06 to 20 nM and the Emax was more than 80%.

The Emax is the greatest response seen or fitted, relative to the assay's reference. In general, IC50 refers to the midpoint of a concentration-inhibition curve. A lower IC50 goes with higher potency.
